Source: patent US9550763B2, “Heterocyclic ring and carbocyclic derivative” (Shionogi & Co., Ltd., priority 2012, dated 2017)

How the values were obtained:
Assay type in all cases: cell-based
[1] = target: T1, human P2X3 receptor (Homo sapiens (Human), UniProt P56373); experiment: Evaluation of human P2X3 receptor inhibitory activity (Test Example 1-1, FDSS 3000, 96-well, 50 nM ATP); settings: human P2X3 receptor in C6BU-1 cells; Test Example 1-1 (compounds I-001 to I-300)
How it was run: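 C6BU-1 cells stably expressing human P2X3, loaded with 4 μM Fluo-3-AM (pH 7.5), preincubated 5 min with compound before 50 nM ATP challenge; fluorescence followed 4 min on FDSS 3000. IC50 derived from peak/baseline fluorescence ratio, no-compound as 0% and buffer-instead-of-ATP as 100% inhibition.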

[2] = target: Rat P2X3 receptor (Rattus norvegicus (Rat), UniProt P49654); experiment: Evaluation of rat P2X3 receptor inhibitory activity in the presence of rat serum albumin (RSA) (Test Example 3-2); settings: rat P2X3 receptor in C6BU-1 cells
Rat P2X3 receptor, sequence (P49654 whole entry): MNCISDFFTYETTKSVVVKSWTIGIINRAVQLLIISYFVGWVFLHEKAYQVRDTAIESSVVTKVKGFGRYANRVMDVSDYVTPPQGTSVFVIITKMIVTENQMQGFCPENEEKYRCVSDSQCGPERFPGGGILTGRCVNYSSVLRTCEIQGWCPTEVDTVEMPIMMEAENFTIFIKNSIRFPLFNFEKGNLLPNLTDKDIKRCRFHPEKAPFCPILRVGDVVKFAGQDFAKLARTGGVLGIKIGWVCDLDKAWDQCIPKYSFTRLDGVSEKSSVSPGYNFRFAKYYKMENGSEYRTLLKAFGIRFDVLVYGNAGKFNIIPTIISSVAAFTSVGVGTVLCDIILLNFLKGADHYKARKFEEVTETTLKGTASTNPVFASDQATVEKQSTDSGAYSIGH
Protocol: Rat P2X3 receptor gene (GenBank accession number NM_031075) was expressed in C6BU-1 cell. The C6BU-1 cells were seeded in a 96-well microtiter plate at a concentration of 2500 cells/well and cultured in the medium (7.0% fetal bovine serum, 7.0% horse serum, and 1% antibiotic and antifungal in DMEM) for one day at 37° C. under 5% carbon dioxide atmosphere. The plasmid was transfected into the cells using transfection reagent FuGENEG (Roche). The transfected cells were cultured in the medium for one day at 37° C. under 5% carbon dioxide atmosphere. The medium was replaced with 4 μM Fluo-3-AM solution (pH7.5) containing 20 mM HEPES, […], 5.27 mM KCl, 0.9 mM MgCl2, 1.26 mM CaCl2, 5.6 mM D-glucose, 2.5 mM probenecid, 1% BSA, and 0.08% Pluronic F-127, and incubated at 37° C. under 5% dioxide carbon atmosphere for one hour. The plate was washed with washing buffer (20 mM HEPES, 137 mM NaCl, 5.27 mM KCl, 0.9 mM MgCl2, 1.26 mM CaCl2, 5.6 mM D-glucose, 2.5 mM probenecid, pH7.5), and each well was added with 40 μL of this buffer. The plate was placed in High-Throughput Screening System FDSS 3000 (Hamamatsu Photonics K.K.). Measurement of fluorescence intensity by FDSS 3000 was started, and 40 μL of DMSO solutions containing 1% RSA (final concentrations) and different concentrations of the test compound as prepared by dilution with dilution buffer (20 mM HEPES, 137 mM NaCl, 5.27 mM KCl, 0.9 mM MgCl2, 1.26 mM CaCl2, 5.6 mM D-glucose, 2.5 mM probenecid, 0.1% Pluronic F-127, pH7.5) were dispensed to each well through the built-in automatic dispenser. Five minutes after, 50 nM ATP solution (50 μL) prepared by dilution with the dilution buffer was dispensed through the built-in automatic dispenser, and the measurement of fluorescence intensity was continued for 4 min. For each well, the specific maximum fluorescence intensity was calculated as the ratio of the maximum fluorescence intensity after addition of the ATP solution to the fluorescence intensity at the starting of the measurement. The 50% inhibitory concentration (IC50) was calculated under the assumption that the specific maximum fluorescence intensity without test compound is 0% inhibition and that the specific maximum fluorescence intensity when the dilution buffer was added in place of ATP solution is 100% inhibition, to evaluate the inhibitory activity of the test compound. FDSS software (Hamamatsu Photonics K.K.) was used for calculation of the specific maximum fluorescence intensity. IC50 was calculated using Microsoft Excel (Microsoft Corporation) and XLfit (idbs Ltd.).

[3] = target: T1, human P2X3 receptor; experiment: Evaluation of human P2X3 receptor inhibitory activity (Test Example 1-2, FLIPR 384, 384-well, 150 nM ATP)
How it was run: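 Human P2X3 stably expressed in C6BU-1 cells, Fluo-3-AM loaded, read on FLIPR at pH 7.5 HEPES buffer. Compound added 5 min before 150 nM ATP; peak/baseline fluorescence over 4 min gave inhibition (buffer instead of ATP = 100%), from which IC50 was derived.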

[4] = human P2X3 receptor in C6BU-1 cells, Test Example 1-2 (compounds I-301 to I-483), read-out: P2X3 IC50

T1 sequence (P56373 whole entry): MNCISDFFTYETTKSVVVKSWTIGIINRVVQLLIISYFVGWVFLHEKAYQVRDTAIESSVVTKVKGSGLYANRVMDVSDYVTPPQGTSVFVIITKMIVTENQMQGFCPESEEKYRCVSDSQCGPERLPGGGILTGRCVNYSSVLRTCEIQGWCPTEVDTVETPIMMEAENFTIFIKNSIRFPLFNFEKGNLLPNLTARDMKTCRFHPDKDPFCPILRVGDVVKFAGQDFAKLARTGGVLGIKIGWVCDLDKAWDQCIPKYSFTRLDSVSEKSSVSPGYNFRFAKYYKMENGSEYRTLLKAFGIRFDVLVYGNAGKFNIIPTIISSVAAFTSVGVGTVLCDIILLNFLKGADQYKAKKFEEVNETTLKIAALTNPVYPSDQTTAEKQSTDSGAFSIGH

| SMILES | IC50 [3, 4] | also measured |
| --- | --- | --- |
| Cc1ccc(Oc2ccc(Nc3nc(=O)c(C(=O)NC4CCOCC4)cn3Cc3ccc(Cl)cc3)cc2)nn1 [Compound I-159] |  | IC50 [1]: 7 nM; IC50 [2]: 23 nM |
| CCC(=O)Nc1c[nH]/c(=N\c2ccc(Oc3ccc(C(N)=O)nn3)cc2)n(Cc2ccc(Cl)cc2)c1=O [Compound I-309] | 9 nM | IC50 [2]: 22 nM |
| O=C(O)c1cc(Oc2ccc(/N=c3\[nH]cc(Nc4ccon4)c(=O)n3Cc3ccc(Cl)cc3)cc2)ccn1 [Compound I-354] | 7 nM | IC50 [2]: 14 nM |
| O=c1c(NC(=O)[C@H]2C[C@H](O)C2)c[nH]/c(=N\c2ccc(Oc3ccc(F)cn3)cc2)n1Cc1ccc(Cl)cc1 [Compound I-215] |  | IC50 [1]: 4 nM; IC50 [2]: 5 nM |
| Cc1cc(/N=c2\[nH]cc(NC(=O)C3CCOCC3)c(=O)n2Cc2ccc(Cl)cc2)ccc1Oc1ncccc1F [Compound I-162] |  | IC50 [1]: 3 nM; IC50 [2]: 13 nM |
| Cc1noc(-c2c[nH]/c(=N\c3ccc(Oc4cccc(C(=O)O)n4)cc3)n(Cc3ccc(Cl)cc3)c2=O)n1 [Compound I-313] | 5 nM | IC50 [2]: 24 nM |
| N#Cc1cnc(Oc2ccc(Nc3nc(=O)c(C(=O)NC4CCOCC4)cn3Cc3ccc(Cl)cc3)cc2)cn1 [Compound I-230] |  | IC50 [1]: 9 nM; IC50 [2]: 10 nM |
| Cc1nc(Nc2cc(=O)n([C@@H](C)[C@@H](C)C(=O)O)c(=O)n2Cc2ccc(Cl)cc2)ccc1Oc1ccc(F)nc1 [Compound I-339] | 9 nM | IC50 [2]: 12 nM |
| CCCn1c(=O)cc(Nc2ccc(Oc3cccc(C(=O)O)n3)cc2)n(Cc2ccc(Cl)cc2)c1=O [Compound I-165] |  | IC50 [1]: 3 nM; IC50 [2]: 17 nM |
| O=C(O)c1cccc(Oc2ccc(/N=c3\[nH]cc(-c4ccccn4)c(=O)n3Cc3ccc(Cl)cc3)cc2)n1 [Compound I-480] | 7 nM |  |
| C[C@@H](C(=O)O)[C@H](C)n1c(=O)cc(Nc2ccc(Oc3ccc(F)cn3)cc2)n(Cc2ccc(Cl)cc2)c1=O [Compound I-325] | 11 nM |  |
| N#CCNC(=O)c1c[nH]/c(=N\c2ccc(Oc3ccc(F)cn3)cc2)n(Cc2ccc(Cl)cc2)c1=O [Compound I-426] | 15 nM |  |
| O=C(O)c1cccc(Oc2ccc(/N=c3\[nH]cc(C(F)(F)F)c(=O)n3Cc3ccc(Cl)cc3)cc2)n1 [Compound I-472] | 15 nM |  |
| CCOC(=O)c1noc(-c2c[nH]/c(=N\c3ccc(Oc4ccon4)cc3)n(Cc3ccc(Cl)cc3)c2=O)n1 [Compound I-437] | 124 nM |  |
| CC(c1ccc(Cl)cc1)n1cc(C(=O)NC2CCOCC2)c(=O)nc1Nc1ccc(Oc2cccc(F)n2)cc1 (stereo not shown) [Compound I-358] | 23 nM |  |
| Cc1nnc(-c2c[nH]/c(=N\c3ccc(Oc4ccon4)cc3)n(Cc3ccc(Cl)cc3)c2=O)o1 [Compound I-349] | 73 nM |  |
| CCCn1c(=O)cc(Nc2ccc(Oc3cccc(C#N)c3)c(C)n2)n(Cc2ccc(C)cc2)c1=O [Compound I-473] | 29 nM |  |
| N#CCNC(=O)c1c[nH]/c(=N\c2ccc(Oc3ccon3)cc2)n(Cc2ccc(Cl)cc2)c1=O [Compound I-425] | 21 nM |  |
| O=C(NC1CCCC1)c1cn(Cc2ccc(Cl)cc2)c(Nc2ccc(Oc3cccc(F)n3)cc2)nc1=O [Compound I-376] | 40 nM |  |
| CSc1cccc(Oc2ccc(/N=c3\[nH]cc(N4CCCC4=O)c(=O)n3Cc3ccc(Cl)cc3)cc2)n1 [Compound I-334] | 838 nM |  |
| O=C(O)c1cccc(Oc2ccc(Nc3nc4ccccc4n3Cc3ccc(Cl)cc3)cc2)n1 [Compound I-455] |  | IC50 ([3]; C6BU-1 cell transfected with human P2X3 receptor gene, method of Test Example 1-2 (compounds I-301 to I-483), read-out: IC50 (human P2X3 receptor inhibitory activity)): < 30000 nM |
| COC(=O)[C@H](C)[C@H](C)n1c(=O)cc(Nc2ccc(Oc3ccc(F)nc3)c(C)n2)n(Cc2ccc(Cl)cc2)c1=O [Compound I-338] | 9 nM |  |
| CCC(=O)Nc1c[nH]/c(=N\c2ccc(Oc3cccc(CC(=O)OC)c3)cc2)n(Cc2ccc(Cl)cc2)c1=O [Compound I-331] | 309 nM |  |
| Cc1ccc(Oc2ccc(/N=c3\[nH]cc(NC(=O)[C@H]4C[C@H](O)C4)c(=O)n3Cc3ccc(Cl)cc3)cc2)nn1 [Compound I-308] | 5 nM | IC50 [2]: 5 nM |

| SMILES | IC50 [3, 4] | also measured |
| --- | --- | --- |
| Cc1nc(Nc2cc(=O)n(CC(C)(C)C(=O)O)c(=O)n2C[C@H]2CC[C@H](C)CC2)ccc1Oc1ccc(F)cn1 [Compound I-445] | 7 nM |  |
| CC(C)c1c[nH]/c(=N\c2ccc(Oc3ccc(C(=O)O)cn3)cc2)n(Cc2ccc(Cl)cc2)c1=O [Compound I-400] | 16 nM |  |
| CCn1c(=O)cc(Nc2ccc3nc(C(F)F)sc3c2)n(Cc2ccc(Cl)cc2)c1=O [Compound I-326] | 328 nM |  |
| C#CCNC(=O)c1c[nH]/c(=N\c2ccc(Oc3ccon3)cc2)n(Cc2ccc(Cl)cc2)c1=O [Compound I-344] | 4 nM |  |
| O=C(NC1CCCOC1)c1cn(Cc2ccc(Cl)cc2)c(Nc2ccc(Oc3cccc(F)n3)cc2)nc1=O (stereo not shown) [Compound I-383] | 13 nM |  |
| O=C(N[C@H]1COC[C@@H]1O)c1cn(Cc2ccc(Cl)cc2)c(Nc2ccc(Oc3cccc(F)n3)cc2)nc1=O [Compound I-394] | 11 nM |  |
| CCC(=O)Nc1c[nH]/c(=N\c2ccc(Oc3cc(C)c(Cl)nn3)cc2)n(Cc2ccc(Cl)cc2)c1=O [Compound I-432] | 12 nM |  |
| CC(=O)OCC(=O)NNC(=O)c1c[nH]/c(=N\c2ccc(Oc3ccon3)cc2)n(Cc2ccc(Cl)cc2)c1=O [Compound I-343] | 84 nM |  |
| CCCc1c[nH]/c(=N\c2ccc(Oc3cccc(C(=O)O)n3)cc2)n(Cc2ccc(Cl)cc2)c1=O [Compound I-436] | 13 nM |  |
| NNC(=O)c1c[nH]/c(=N\c2ccc(Oc3ccon3)cc2)n(Cc2ccc(Cl)cc2)c1=O [Compound I-423] | 81 nM |  |
| Cc1noc(-c2c[nH]/c(=N\c3ccc(Oc4ccc(C(N)=O)nn4)cc3)n(Cc3ccc(Cl)cc3)c2=O)n1 [Compound I-315] | 10 nM |  |
| O=C1CCCN1C1=CN[C@@H](Nc2ccc(Oc3ccon3)cc2)N(Cc2ccc(Cl)cc2)C1=O [Compound I-356] | 212 nM |  |
| CCC(=O)Nc1c[nH]/c(=N\c2ccc(Oc3cccc(CC(=O)O)c3)cc2)n(Cc2ccc(Cl)cc2)c1=O [Compound I-355] | 53 nM |  |
| Cc1noc(-c2c[nH]/c(=N\c3ccc(Oc4cccc(C(N)=O)n4)cc3)n(Cc3ccc(Cl)cc3)c2=O)n1 [Compound I-316] | 13 nM |  |
| Cc1nnc(-c2c[nH]/c(=N\c3ccc(Oc4cccc(C#N)n4)cc3)n(Cc3ccc(Cl)cc3)c2=O)o1 [Compound I-327] | 34 nM |  |
| CCC(=O)Nc1c[nH]/c(=N\c2ccc(Oc3cccc(CCC(=O)O)c3)cc2)n(Cc2ccc(Cl)cc2)c1=O [Compound I-337] | 76 nM |  |
| Cc1noc(C)c1NC(=O)c1cn(Cc2ccc(Cl)cc2)c(Nc2ccc(Oc3cccc(F)n3)cc2)nc1=O [Compound I-377] | 37 nM |  |
| CC(=O)NNC(=O)c1c[nH]/c(=N\c2ccc(Oc3ccon3)cc2)n(Cc2ccc(Cl)cc2)c1=O [Compound I-347] | 152 nM |  |
| N#Cc1cccc(Oc2ccc(/N=c3\[nH]cc(Nc4ccon4)c(=O)n3Cc3ccc(Cl)cc3)cc2)n1 [Compound I-319] | 19 nM |  |
| NC(=O)c1cccc(Oc2ccc(/N=c3\[nH]cc(C4CCOCC4)c(=O)n3Cc3ccc(Cl)cc3)cc2)n1 [Compound I-483] | 17 nM |  |
| O=C(Nc1cn[nH]c1)c1cn(Cc2ccc(Cl)cc2)c(Nc2ccc(Oc3cccc(F)n3)cc2)nc1=O [Compound I-395] | 22 nM |  |
| NC(=O)CNC(=O)c1cn(Cc2ccc(Cl)cc2)c(Nc2ccc(Oc3cccc(F)n3)cc2)nc1=O [Compound I-431] | 44 nM |  |
| CCCn1c(=O)c(F)c(Nc2ccc(Oc3cccc(C#N)n3)c(C)n2)n(Cc2ccc(Cl)cc2)c1=O [Compound I-301] | 163 nM |  |
| Cc1ccccc1Cn1cc(C(=O)NC2CCOCC2)c(=O)nc1Nc1ccc(Oc2cccc(F)n2)cc1 [Compound I-357] | 781 nM |  |
